Results reported in patent US20240366594A1, “Small Molecule Inhibitors of Formation of Neutrophil-Derived Extracellular Traps (NETosis) and Uses Thereof” (The Brigham and Women's Hospital, Inc., priority 2021, published 2024).

What was measured:
[1] = test system: mice challenged with LPS; assay: In vivo LPS-induced septic shock; set-up: species or system mouse; conditions: for platelet counts in the blood: 2 h post LPS challenge, compared with LPS alone, FIGS. 4C, 8D; for pro-inflammatory cytokine production (serum, ELISA): FIGS. 4E-4G; for neutrophils levels (blood and peritoneal lavage): FIGS. 8A-8C; for release of NETs by neutrophils in the peritoneal lavage (CitH3-positive neutrophils): cytofluorimetry, FIG. 4D; for body temperature 2 h post challenge: ricolinostat 30 mg/kg/dose or GSK484 25 mg/kg/dose i.p., FIG. 4B
Description: FIGS. 4A-G. Class I/IIb HDAC inhibition protects against systemic inflammation • (A) Time line of drug treatment and LPS priming and challenge. Mice were intraperitoneally injected, or not, with two doses of ricolinostat or GSK484 and were then intraperitoneally administered with two doses of LPS (−5 h, 1 mg/kg and 0 h, 2 mg/kg) to induce lethal sepsis. Peritoneal lavage and blood were collected 2 h after the LPS challenge. • (B) Body temperature was measured 2 h post challenge. • (C) Concentration of platelets in the blood was measured by cytofluorimetry. • (D) NETosis was measured as neutrophils (Ly6G+/CD11b+) positive for citrullinated histone H3 staining in the peritoneal lavage. • (E-G) Serum cytokines were measured by ELISA. […] Statistics were calculated using one-way ANOVA (*p<0.05; ** p<0.01; *** p<0.001; ****p<0.0001; n.s., not significant). n=15 for each group except the GSK484-treated group (n=10). Gray stars represent comparison of all experimental groups with the saline-treated healthy control. Black stars represent comparison of drug-treated groups with LPS-stimulated mice without drug treatment. Violin plots represent median (dashed line) with quartiles (dotted line). See also FIGS. 8A-F.
FIGS. 8A-F. Class I/IIb HDAC inhibition protects against systemic inflammation. • A-C) Neutrophils numbers and percentage were calculated in blood (A, B) and peritoneal lavage (C) of mice challenged, or not, with LPS. Saline group represent healthy mice. NT group represent mice that were challenged with LPS without receiving any drug. Ricolinostat (30 mg/kg/dose) or GSK484 (25 mg/kg/dose) were administered intraperitoneally at day −1, and 2 hour prior LPS priming. • D) Concentration of platelets in the blood was assessed by cytofluorimetry 2 hours post LPS-challenge. • E, F) Absolute amounts of serum cytokines were measured by ELISA. Violin plots represent median (dashed line) with quartiles (dotted line). Statistics were calculated using One-way ANOVA (*P<0.05; **P<0.01; ***P<0.001; ****P<0.0001; n.s., not significant). Grey stars represent comparison of all experimental groups with the saline control. Black stars represent comparison of drug treated groups with NT group.
Alternatively, neutrophils positive for citrullinated histone H3 were quantified by cytofluorimetry. Briefly, neutrophils from bronco-alveolar lavage fluid or peritoneal lavage fluid were stained for Ly6G, CD11b, CD45 and Zombie dye for 20 minutes at room temperature and then fixed with BD FACS Lysing Solution (cat #349202, BD Biosciences). Samples were washed twice with Intracellular Staining Permeabilization Wash buffer (cat #421002, Biolegend), incubated with anti-citrullinated histone H3 antibody (Abcam) 1 hour at room temperature and subsequently with PE anti-rabbit antibody for 30 minutes. Finally, samples were acquired with BD FACS Fortessa and neutrophils (CD45+/Ly6G+/CD11b+) positive for citrullinated histone H3 were quantified with FlowJo software.
8-week-old female mice were primed with 1 mg/kg of LPS intra peritoneum (i.p.) for 5 hours and then challenged with 2 mg/kg of LPS i.p. Ricolinostat was used at 30 mg/kg/dose, GSK484 at 25 mg/kg/dose and dexamethasone at 10 mg/kg/dose. Drugs were administered i.p. at day −1 and 2 hours prior priming. Blood samples were collected 2 hours post-challenge and cytokines were measured by ELISA. The platelet concentrations and neutrophils numbers in the blood and peritoneal cavity were calculated by cytofluorimetry using CountBright Absolute Cell Counting Beads (Thermo Scientific) according to the manufacturer's instructions. NETosis was measured as quantity of neutrophils in the peritoneal lavage positive for citrullinated histone H3 by cytofluorimetry.

[2] = test system: mice treated with S. aureus; assay: S. aureus pulmonary infection model (bacterial pneumonia); assay type: in vivo, mouse; conditions: for NETosis (citrullinated histone H3 and MPO-DNA complexes in BALF): ELISA, FIGS. 3E and 3F; for bacterial control (S. aureus CFU in lung homogenates): FIG. 3D; for numbers of neutrophils in the BALF: FIG. 3I; for neutrophils circulating in the blood: FIGS. 3H, 7A; for lung barrier alteration (albumin content in BALF): compared with S. aureus alone, FIG. 3C; for citrullinated histone H3-positive neutrophils in the BALF: cytofluorimetric quantification, FIG. 3G; for IL-1β / IL-6: in the BALF, compared with S. aureus only, FIGS. 7B-7D

SMILES	platelet counts in the blood [1]	pro-inflammatory cytokine production (serum, ELISA) [1]	neutrophils levels (blood and peritoneal lavage) [1]	release of NETs by neutrophils in the peritoneal lavage (CitH3-positive neutrophils) [1]	body temperature 2 h post challenge [1]	NETosis (citrullinated histone H3 and MPO-DNA complexes in BALF) [2]	bacterial control (S. aureus CFU in lung homogenates) [2]	numbers of neutrophils in the BALF [2]	neutrophils circulating in the blood [2]	lung barrier alteration (albumin content in BALF) [2]	citrullinated histone H3-positive neutrophils in the BALF [2]	IL-1β [2]	IL-6 [2]	pro-inflammatory cytokine production (serum, ELISA), comparison with dexamethasone ([1]; dexamethasone 10 mg/kg/dose, ricolinostat 30 mg/kg/dose, FIGS. 8E and 8F)	morbidity (body temperature) ([2]; ricolinostat 30 mg/kg/dose i.p. at -24 h and -3 h, compared with S. aureus only and with S. aureus and GSK484, FIG. 3B)
COc1cc(C(=O)N2CC[C@@H](O)[C@@H](N)C2)cc2nc(-c3cc4ccccc4n3CC3CC3)n(C)c12 [GSK484]	significantly higher	significantly decreased	increased neutrophils levels	reduced release of NETs	no temperature loss	potently decreased	not affected	increased numbers	no major differences	prevented	inhibit NETosis	significantly decreased	significantly decreased		
O=C(CCCCCCNC(=O)c1cnc(N(c2ccccc2)c2ccccc2)nc1)NO [ricolinostat]	significantly higher	significantly decreased	increased neutrophils levels	reduced release of NETs	no temperature loss	potently decreased	not affected	increased numbers	no major differences	prevented	inhibit NETosis	significantly decreased	significantly decreased	efficiently reduced	significantly decreased
